Each compound was assayed against human adenosine A2b receptor (Homo sapiens (Human), UniProt P29275) (assay: Cellular in vitro reporter gene test for A2b receptor activity (CHO-K1, CRE-luciferase, NECA stimulation)). Conditions: recombinant CHO-K1 cell line, CRE-luciferase reporter, antagonism of EC50 concentration of NECA; in some cases means of several determinations, rounded to two significant figures; read-out: A2b receptor IC50.
Format: cell-based
How it was run: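 CHO-K1 cells with CRE-driven luciferase; antagonists co-incubated with NECA at its EC50, determined in a pre-experiment on each test day. Luciferase read by luminescence 3 h after NECA addition.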

Sequence of human adenosine A2b receptor (P29275 whole entry): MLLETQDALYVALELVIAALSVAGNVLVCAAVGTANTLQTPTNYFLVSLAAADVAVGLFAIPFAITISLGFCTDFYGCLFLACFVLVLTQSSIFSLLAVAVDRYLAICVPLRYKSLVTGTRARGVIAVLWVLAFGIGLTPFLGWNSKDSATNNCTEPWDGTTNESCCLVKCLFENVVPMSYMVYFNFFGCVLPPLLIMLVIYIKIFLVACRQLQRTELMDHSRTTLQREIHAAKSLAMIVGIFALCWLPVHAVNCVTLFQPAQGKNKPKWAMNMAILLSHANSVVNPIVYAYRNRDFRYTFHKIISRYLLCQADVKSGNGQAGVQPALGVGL

SMILES | IC50
Cc1c(CN2CCNC(=O)C2=O)sc2c1c(=O)n(C(C)C)c(=O)n2CC1CCO1 (single isomer, unassigned) [Example 398, 6-[(2,3-Dioxopiperazin-1-yl)methyl]-3-isopropyl-5-methyl-1-(oxetan-2-ylmethyl)thieno[2,3-d]pyrimidine-2,4(1H,3H)-dione] | 240 nM
COCCn1c(=O)n(CCc2ccccc2)c(=O)c2c(C(F)(F)F)c(CN3CCOC3=O)sc21 [Example 22, 1-(2-Methoxyethyl)-6-[(2-oxo-1,3-oxazolidin-3-yl)methyl]-3-(2-phenylethyl)-5-(trifluoromethyl)thieno[2,3-d]pyrimidine-2,4(1H,3H)-dione] | 24 nM
CCn1c(=O)c2c(C)c(CN3CCNC(=O)C3=O)sc2n(CCCOC)c1=O [Example 396, 6-[(2,3-Dioxopiperazin-1-yl)methyl]-3-ethyl-1-(3-methoxypropyl)-5-methylthieno[2,3-d]pyrimidine-2,4(1H,3H)-dione] | 93 nM
Cc1c(CN2CCNC2=O)sc2c1c(=O)n(C(C)C)c(=O)n2CCF [Example 182, 1-(2-Fluoroethyl)-3-isopropyl-5-methyl-6-[(2-oxoimidazolidin-1-yl)methyl]thieno[2,3-d]pyrimidine-2,4(1H,3H)-dione] | 9 nM
CCn1c(=O)c2c(C)c(CN3CCNC3=S)sc2n(CC2CCO2)c1=O (racemic) [Example 34, 3-Ethyl-5-methyl-1-(oxetan-2-ylmethyl)-6-[(2-thioxoimidazolidin-1-yl)methyl]thieno[2,3-d]pyrimidine-2,4(1H,3H)-dione (racemate)] | 10 nM
COCCn1c(=O)n(C(C)C)c(=O)c2c(C)c(CN3CCNC3=NC#N)sc21 [Example 263, [1-{[3-Isoprpy-1-(2-methoxyethyl)-5-methyl-2,4-dioxo-1,2,3,4-tetrahydrothieno[2,3-d]pyrimidin-6-yl]methyl}imidazolidin-2-ylidene]cyanamide] | 5.3 nM
CCn1c(=O)c2c(C)c(CN3CCOCC3=O)sc2n(CCC(F)(F)F)c1=O [Example 14, 3-Ethyl-5-methyl-6-[(3-oxomorpholin-4-yl)methyl]-1-(3,3,3-trifluoropropyl)thieno[2,3-d]pyrimidine-2,4(1H,3H)-dione] | 19 nM
Cc1c(Cn2[nH]ccc2=O)sc2c1c(=O)n(CC(F)(F)F)c(=O)n2CCC(F)(F)F [Example 282, 5-Methyl-6-[(5-oxo-2,5-dihydro-1H-pyrazol-1-yl)methyl]-3-(2,2,2-trifluoroethyl)-1-(3,3,3-trifluoropropyl)thieno[2,3-d]pyrimidine-2,4(1H,3H)-dione] | 30 nM
Cc1c(CN2CCNC2=O)sc2c1c(=O)n(CC(C)C)c(=O)n2C [Example 91, 3-Isobutyl-1,5-dimethyl-6-[(2-oxoimidazolidin-1-yl)methyl]thieno[2,3-d]pyrimidine-2,4(1H,3H)-dione] | 11 nM
COCCn1c(=O)c2c(C)c(CN3CCNC3=O)sc2n(CCCF)c1=O [Example 230, 1-(3-Fluoropropyl)-3-(2-methoxyethyl)-5-methyl-6-[(2-oxoimidazolidin-1-yl)methyl]thieno[2,3-d]pyrimidine-2,4(1H,3H)-dione] | 12 nM
CCOCCn1c(=O)n(CC(F)(F)F)c(=O)c2c(C)c(CN3CCNC3=O)sc21 [Example 205, 1-(2-Ethoxyethyl)-5-methyl-6-[(2-oxoimidazolidin-1-yl)methyl]-3-(2,2,2-trifluoroethyl)thieno[2,3-d]pyrimidine-2,4(1H,3H)-dione] | 25 nM
CC#CCn1c(=O)c2c(C)c(CN3CCNC3=O)sc2n(CCOC)c1=O [Example 317, 3-(But-2-yn-1-yl)-1-(2-methoxyethyl)-5-methyl-6-[(2-oxoimidazolidin-1-yl)methyl]thieno[2,3-d]pyrimidine-2,4(1H,3H)-dione] | 25 nM
CCOCCn1c(=O)n(CC)c(=O)c2c(C)c(CN3CCNC3=S)sc21 [Example 32, 1-(2-Ethoxyethyl)-3-ethyl-5-methyl-6-[(2-thioxoimidazolidin-1-yl)methyl]thieno[2,3-d]pyrimidine-2,4(1H,3H)-dione] | 11 nM
COCCn1c(=O)n(CCc2ccccc2)c(=O)c2c(C)c(CN3CCC3=O)sc21 [Example 1, 1-(2-Methoxyethyl)-5-methyl-6-[(2-oxoazetidin-1-yl)methyl]-3-(2-phenylethyl)thieno[2,3-d]pyrimidine-2,4(1H,3H)-dione] | 9.7 nM
Cc1c(CN2CCNC2=O)sc2c1c(=O)n(C(C)C)c(=O)n2CCC(F)(F)F [Example 181, 3-Isopropyl-5-methyl-6-[(2-oxoimidazolidin-1-yl)methyl]-1-(3,3,3-trifluoropropyl)thieno[2,3-d]pyrimidine-2,4(1H,3H)-dione] | 1.5 nM
CCn1c(=O)c2c(C)c(CN3CCNC3=NC(=O)OC)sc2n(CCC(F)(F)F)c1=O [Example 370, Methyl [1-{[3-ethyl-5-methyl-2,4-dioxo-1-(3,3,3-trifluoropropyl)-1,2,3,4-tetrahydrothieno[2,3-d]pyrimidin-6-yl]methyl}imidazolidin-2-ylidene]carbamate] | 2 nM
COCCn1c(=O)c2c(C)c(CN3CCNC3=O)sc2n(CCC(F)(F)F)c1=O [Example 229, 3-(2-Methoxyethyl)-5-methyl-6-[(2-oxoimidazolidin-1-yl)methyl]-1-(3,3,3-trifluoropropyl)thieno[2,3-d]pyrimidine-2,4(1H,3H)-dione] | 4 nM
Cc1c(CN2CCNC2=O)sc2c1c(=O)n(CC(F)F)c(=O)n2CC1CCO1 (single isomer, unassigned) [Example 217, 3-(2,2-Difluoroethyl)-5-methyl-1-(oxetan-2-ylmethyl)-6-[(2-oxoimidazolidin-1-yl)methyl]thieno[2,3-d]pyrimidine-2,4(1H,3H)-dione] | 79 nM
CCn1c(=O)c2c(C)c(CN3CCNC3=S)sc2n(CF)c1=O [Example 292, 3-Ethyl-1-(fluoromethyl)-5-methyl-6-[(2-thioxoimidazolidin-1-yl)methyl]thieno[2,3-d]pyrimidine-2,4(1H,3H)-dione] | 8.3 nM
CCn1c(=O)c2c(C)c(Cn3[nH]ccc3=O)sc2n(CC2CCCO2)c1=O (single isomer, unassigned) [Example 130, 3-Ethyl-5-methyl-6-[(5-oxo-2,5-dihydro-1H-pyrazol-1-yl)methyl]-1-(tetrahydrofuran-2-ylmethyl)thieno[2,3-d]pyrimidine-2,4(1H,3H)-dione] | 30 nM

Second part, the compound after the results:

IC50 | SMILES
57 nM | COC(C)Cn1c(=O)c2c(C)c(CN3CCNC(=O)C3=O)sc2n(CCC(F)(F)F)c1=O (single isomer, unassigned) [Example 495, 6-[(2,3-Dioxopiperazin-1-yl)methyl]-3-(2-methoxypropyl)-5-methyl-1-(3,3,3-trifluoropropyl)thieno[2,3-d]pyrimidine-2,4(1H,3H)-dione]
5.1 nM | COC(=O)N=C1NCCN1Cc1sc2c(c1C)c(=O)n(C(C)C(F)(F)F)c(=O)n2CCC(F)(F)F (racemic) [Example 470, Methyl [1-{[5-methyl-2,4-dioxo-3-(1,1,1-trifluoropropan-2-yl)-1-(3,3,3-trifluoropropyl)-1,2,3,4-tetrahydrothieno[2,3-d]pyrimidin-6-yl]methyl}imidazolidin-2-ylidene]carbamate]
48 nM | Cc1c(Cn2nc[nH]c2=O)sc2c1c(=O)n(C(C)C(F)(F)F)c(=O)n2CCC(F)(F)F (racemic) [Example 437, 5-Methyl-6-[(5-oxo-4,5-dihydro-1H-1,2,4-triazol-1-yl)methyl]-3-(1,1,1-trifluoropropan-2-yl)-1-(3,3,3-trifluoropropyl)thieno[2,3-d]pyrimidine-2,4(1H,3H)-dione]
250 nM | CCOCCn1c(=O)c2c(C)c(CN3CCNC(=O)C3=O)sc2n(CCCF)c1=O [Example 492, 6-[(2,3-Dioxopiperazin-1-yl)methyl]-3-(2-ethoxyethyl)-1-(3-fluoropropyl)-5-methylthieno[2,3-d]pyrimidine-2,4(1H,3H)-dione]
7.4 nM | Cc1c(CN2CCNC2=NC#N)sc2c1c(=O)n(CC(C)(C)C)c(=O)n2CCC(F)(F)F [Example 443, [1-{[3-(2,2-Dimethylpropyl)-5-methyl-2,4-dioxo-1-(3,3,3-trifluoropropyl)-1,2,3,4-tetrahydrothieno[2,3-d]pyrimidin-6-yl]methyl}imidazolidin-2-ylidene]cyanamide]
24 nM | COCCn1c(=O)n(C(C)C(F)(F)F)c(=O)c2c(C)c(CN3CCNC3=NC(=O)OC)sc21 (single isomer, unassigned) [Example 515, Methyl [1-{[1-(2-methoxyethyl)-5-methyl-2,4-dioxo-3-(1,1,1-trifluoropropan-2-yl)-1,2,3,4-tetrahydrothieno[2,3-d]pyrimidin-6-yl]methyl}imidazolidin-2-ylidene]carbamate]
14 nM | Cc1c(CN2CCNC2=NC#N)sc2c1c(=O)n(CC(F)(F)F)c(=O)n2CC1CCO1 (single isomer, unassigned) [Example 450, [1-{[5-Methyl-1-(oxetan-2-ylmethyl)-2,4-dioxo-3-(2,2,2-trifluoroethyl)-1,2,3,4-tetrahydrothieno[2,3-d]pyrimidin-6-yl]methyl}imidazolidin-2-ylidene]cyanamide]
67 nM | Cc1c(CN2CCNC(=O)C2=O)sc2c1c(=O)n(CC(C)(C)C)c(=O)n2CC1CCCO1 (single isomer, unassigned) [Example 484, 3-(2,2-Dimethylpropyl)-6-[(2,3-dioxopiperazin-1-yl)methyl]-5-methyl-1-(tetrahydrofuran-2-ylmethyl)thieno[2,3-d]pyrimidine-2,4(1H,3H)-dione]
250 nM | Cc1c(CN2CCNC(=O)C2=O)sc2c1c(=O)n(CC(F)(F)F)c(=O)n2CC1CCCO1 (racemic) [Example 487, 6-[(2,3-Dioxopiperazin-1-yl)methyl]-5-methyl-1-(tetrahydrofuran-2-ylmethyl)-3-(2,2,2-trifluoroethyl)thieno[2,3-d]pyrimidine-2,4(1H,3H)-dione]

From patent US10428083B2, “Heterocyclylmethyl-thienouracile as antagonists of the adenosine-A2B-receptor” (BAYER PHARMA AKTIENGESELLSCHAFT, priority 2015, dated 2019)
